From patent US7495027B2, “3-aryl-4-hydroxyfuranone compounds and the human and animal health use thereof” (Wyeth, priority 2003, dated 2009)

Assays:
[1] = target: T1, S. aureus UDP-N-acetylglucosamine enolpyruvoyl transferase, MurA (Staphylococcus aureus, UniProt P84058); experiment: Inhibitory activity against MurA (S. aureus); format: biochemical; conditions: (S) S. aureus enzyme
T1 sequence (P84058 1-421): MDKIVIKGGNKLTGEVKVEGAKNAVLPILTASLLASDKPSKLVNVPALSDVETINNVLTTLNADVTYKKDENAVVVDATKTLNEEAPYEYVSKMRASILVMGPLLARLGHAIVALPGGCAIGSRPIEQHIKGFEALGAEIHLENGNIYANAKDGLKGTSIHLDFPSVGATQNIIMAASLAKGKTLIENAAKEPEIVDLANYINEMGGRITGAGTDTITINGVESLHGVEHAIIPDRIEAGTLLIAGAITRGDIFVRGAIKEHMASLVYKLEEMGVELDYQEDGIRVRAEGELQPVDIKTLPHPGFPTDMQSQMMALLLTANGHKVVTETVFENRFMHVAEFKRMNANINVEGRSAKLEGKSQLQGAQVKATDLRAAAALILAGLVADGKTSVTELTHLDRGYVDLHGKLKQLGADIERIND
Procedure: Evaluation of the Inhibitory Activity of Test Compounds Against Enzymes which Catalyze Bacterial Cell Wall Biosynthesis
S. aureus and E. coli UDP-N-acetylglucosamine enolpyruvoyl transferase, MurA
Preparation of Enzyme Solution:
The enzyme solution is prepared by admixing the following: 50 mM Tris/HCl pH 8.0, […] 1 M Tris, 5 mM DTT, […] 1 M DTT, 20% Glycerol 4 ml 50% Glycerol, add water to 10 ml.
Preparation of Stop Solution:
The stop solution is prepared by mixing the following: 4.2% ammonium molybdate in 4N HCl, 8.4 g/200 ml 4N HCl, 0.045% malachite green, 90 mg/200 ml water, then stir 1 part ammonium molybdate with 2 parts malachite green for 30 min.
A procedure similar to that described by C. T. Walsh in Biochemistry 33, 10646-10651, is used to evaluate the inhibitory activity of test compounds against MurA, the enzyme which catalyzes the first step of bacterial cell wall biosynthesis. Experiments are performed by adding a solution of test compound (in a mixture of dimethylsulfoxide and water) and an enzyme solution to a well. After a pre-incubation period of 10 mintues at 37° C., Tris/BME buffer and assay buffer are added. A start point optical density (OD0) reading is taken at 340 nm immediately following the addition of assay buffer. After incubation for 1 hr at 37° C., the stop solution is added and the color is allowed to develop for 30 minutes. An end point OD1 reading at […] is then taken. […]

O=C1O/C(=C\c2ccc(Cl)cc2)C(O)=C1c1ccc(-c2ccccc2)c(F)c1 [Example 138]
IC50 [1]: 17.8 µM | melting point: 255 to 258 °C

O=C1O/C(=C\c2ccc(-c3ccccc3)cc2)C(O)=C1c1csc2ccccc12 [Example 143]
IC50 [1]: > 63.1 µM | melting point: 270 °C

O=C1O/C(=C\c2ccc(-c3ccccc3)cc2)C(O)=C1c1cccs1 [Example 144]
IC50 [1]: > 72.2 µM | melting point: 213 °C (dec.)
